Tested on: normal human keratinocyte/melanocyte cocultures
Assay: UV-induced melanogenesis by 14C-thiouracil incorporation related to amount of protein
Type: cell-based
Experimental: The protoprotective and propigmenting effect of the combination was tested on normal human keratinocyte/melanocyte cocultures according to the method described in patent FR 95/06491, by evaluating the UV-induced melanogenesis. The rate of melanin synthesis is evaluated through the incorporation of C^14-labeled thiouracil. It is related to the amount of protein.
Normal human keratinocytes (NHKs) and normal human melanocytes (NHMs) are cultured from foreskin. The two types of cell are amplified and stored frozen. Eight days before the test, each of the cell types is again placed in culture. The keratinocytes are cultured according to the method described by Rheinwald and Green (Cell (1975) 6, 331-334) on feeder cells (3T3 fibroblasts) in Green 7F growth medium (DMEM/F12, 3:1, 10% fetal calf serum (Gibco), 0.18 mM adenine, 10 ng/ml epidermal growth factor EGF, 0.4 μg/ml hydrocortisone, 5 μg/ml insulin, 10 μM isoproterenol, 5 μg/ml transferrin and 2 nM triiodothyronine). The melanocytes are amplified in M2 medium (Olsson, M. J. et al., Lancet (1992) 340, 981). The media are changed every two days.
3 days before the test, 250 000 normal human keratinocytes and 80 000 normal human melanocytes are mixed and seeded per well of 24-well plates (Costar type) and cultured for three days in the keratinocyte growth medium (Green 7F) without phenol red. During the following four days, the culture medium is replaced daily with UV medium (DMEM/F12, 3:1, without phenol red, 2% defined calf serum (HyClone), 10 ng/ml EGF, 10 ng/ml fibroblast growth factor type β (βFGF)).
The UV-induction of pigmentation is carried out by solar simulated radiation (SSR) using a 1 000 watt Oriel Xenon solar simulator comprising a 280-400 nm dichroic filter (Oriel, model 81035) and a Schott WG 320 filter having a wavelength cut-off of 311 nm (corresponding to a thickness of approximately 1.5 mm).
The cell cultures are irradiated once a day for 4 days in a phosphate buffer solution (PBS).
The propigmenting molecules are brought into contact with the cells in the PBS during the irradiation and added to the culture medium (UV medium) after irradiation.
The extract of Burnet is tested at 0.005%. It is prepared in a stock solution at 0.5% in a solvent (dimethyl sulfoxide, DMSO), which is added at a 1/1 000 dilution to the PBS and to the UV medium. The final concentration of the solvent in the culture medium is therefore 1/1 000.
The extract of Chrysanthemum sinensis obtained according to protocol Nos. 2+4 is tested at 1%.
The tyrosine, which serves as a positive control, is tested at 500 μM.
The Mexoryl SX® is tested at 8%.
After each exposure to UV radiation, the formulations containing the sunscreen are applied, in the proportion of 1.4 mg/cm^2, to a quartz slide on which there is a Transpore® strip, according to a method derived from that used to determine sun protection indices in vitro, described by Diffey and Robson (J Soc Cosmet Chemists (1989) 300, 230-235). The assembly is placed above the cocultures for the duration of the irradiation.
After irradiation, the cells are incubated in the UV medium containing 1 μCi/ml of C^14-labeled thiouracil.
Measurement of Melanogenesis:
The following controls are realized:
control culture: no product tested […]
24 hours after the final UV irradiation, the cells are rinsed in phosphate buffer. The proteins are precipitated with 5% trichloroacetic acid (TCA) and washed in order to remove the free radioactivity. […]

Row | Structure (SMILES) | % variation in melanin synthesis compared to the control; A = 14CthioU/amount protein (%/control) (SSR irradiation + solvent (DMSO 1/1000), 8% Mexoryl SX formulation on quartz slide above the cocultures, no propigmenting agent) [%] | % variation in melanin synthesis compared to the control; A = 14CthioU/amount protein (%/control) (SSR irradiation once a day for 4 days, 8% Mexoryl SX formulation 1.4 mg/cm2 on quartz slide above the cocultures, no propigmenting agent, no solvent) [%] | % variation in melanin synthesis compared to the control; A = 14CthioU/amount protein (%/control) (SSR irradiation once a day for 4 days, no screening agent, tyrosine 500 μM, extract of Burnet 0.005% (DMSO solvent), extract of Chrysanthemum sinensis 1%) [%] | % variation in melanin synthesis compared to the control; A = 14CthioU/amount protein (%/control) (SSR irradiation screened by 8% Mexoryl SX formulation, in combination with propigmenting agent: tyrosine 500 μM, extract of Burnet 0.005% (DMSO solvent), extract of Chrysanthemum sinensis 1%) [%] | % variation in melanin synthesis compared to the control; A = 14CthioU/amount protein (%/control) (no irradiation, propigmenting agent alone: tyrosine 500 μM, extract of Burnet 0.005% (DMSO solvent 1/1000), extract of Chrysanthemum sinensis 1%) [%]
1 | CC1(C)C2CCC1(CS(=O)(=O)O)C(=O)C2=Cc1ccc(C=C2C(=O)C3(CS(=O)(=O)O)CCC2C3(C)C)cc1 [Mexoryl SX ®] | 36 | 15 |  |  | 
2 | N[C@@H](Cc1ccc(O)cc1)C(=O)O [tyrosine] |  |  | 382 | 74 | 40

— patent US20040170580A1, “Filtering suntan product” (priority 2001, published 2004)
